Experimental data reported in patent US9474701B2, “Antimicrobial soaps containing carvacrol and methods of using same” (Hydromer, Inc., priority 2014, dated 2016).

Experiments:
[1] = tested on: gram negative/gram positive bacteria; test: Synergistic effect of soap ingredients with/without Oregano Oil; type: cell-based; settings: for Efficacy against gram negative/gram positive bacteria: inhibition, ingredients with/without Oregano Oil; for Synergistic effect: synergism with Oregano Oil
Description: Main ingredients of NMP free V100, 2-Phenoxyethanol, Caprylyl glycol and Hexylene Glycol were analyzed in the concentrations that they appear in the Hydromer Antiseptic Soap with/without Oregano Oil.

[2] = tested on: gram negative/gram positive bacteria; test: Synergistic effect of soap ingredients with/without Carvacrol; type: cell-based; settings: for Efficacy against gram negative/gram positive bacteria: bacterial growth inhibition, ingredients with/without Carvacrol; for Synergistic effect: synergism with the Carvacrol
Description: Main ingredients of NMP free V100, (2-Phenoxyethanol, Caprylyl glycol and Hexylene Glycol) were analyzed with/without Carvacrol.

| Compound | Efficacy against gram negative/gram positive bacteria [1] | Synergistic effect [1] | Efficacy against gram negative/gram positive bacteria [2] | Synergistic effect [2] |
| --- | --- | --- | --- | --- |
| CCCCCCC(O)CO (centres unmarked) [0.02% Caprylyl Glycol, Caprylyl Glycol] | NO Inhibition | act synergistically | NO Inhibition | act synergistically |
| Cc1ccc(C(C)C)cc1O [0.2% Carvacrol, Carvacrol] | – | – | NO Inhibition | – |
| OCCOc1ccccc1 [0.035% 2-Phenoxyethanol, 2-Phenoxyethanol] | NO Inhibition | act synergistically | NO Inhibition | act synergistically |
| Hexylene Glycol [0.008% Hexylene Glycol] | NO Inhibition | – | NO Inhibition | – |
